Assay results published in ChEMBL document CHEMBL1201862, “PubChem BioAssay data set” (2004).
Active and inactive are the calls of the source.

Experiments:
[1] = biological target: T1, Cytochrome P450 1A2 (Homo sapiens, UniProt P05177);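 also: PubChem cytochrome P450 panel assay, CYP1A2 panel member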
T1 sequence (P05177 whole entry): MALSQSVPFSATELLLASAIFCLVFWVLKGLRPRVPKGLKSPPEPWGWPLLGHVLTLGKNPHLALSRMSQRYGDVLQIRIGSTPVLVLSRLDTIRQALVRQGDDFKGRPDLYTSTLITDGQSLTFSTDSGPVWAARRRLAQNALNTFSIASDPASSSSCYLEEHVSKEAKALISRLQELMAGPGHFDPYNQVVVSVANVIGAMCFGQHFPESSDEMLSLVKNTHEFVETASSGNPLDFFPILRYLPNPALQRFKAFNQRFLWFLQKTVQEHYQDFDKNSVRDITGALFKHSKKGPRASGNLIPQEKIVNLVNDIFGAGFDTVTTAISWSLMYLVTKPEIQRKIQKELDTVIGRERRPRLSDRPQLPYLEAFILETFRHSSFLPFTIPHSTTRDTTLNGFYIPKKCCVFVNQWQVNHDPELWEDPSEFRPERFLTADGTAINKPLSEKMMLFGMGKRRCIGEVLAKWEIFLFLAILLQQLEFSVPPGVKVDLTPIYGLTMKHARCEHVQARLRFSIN

[2] = biological target: Cytochrome P450 2D6 (Homo sapiens, UniProt P10635);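 also: CYP2D6 member of a cytochrome P450 panel assay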
Chain of Cytochrome P450 2D6 (P10635 whole entry): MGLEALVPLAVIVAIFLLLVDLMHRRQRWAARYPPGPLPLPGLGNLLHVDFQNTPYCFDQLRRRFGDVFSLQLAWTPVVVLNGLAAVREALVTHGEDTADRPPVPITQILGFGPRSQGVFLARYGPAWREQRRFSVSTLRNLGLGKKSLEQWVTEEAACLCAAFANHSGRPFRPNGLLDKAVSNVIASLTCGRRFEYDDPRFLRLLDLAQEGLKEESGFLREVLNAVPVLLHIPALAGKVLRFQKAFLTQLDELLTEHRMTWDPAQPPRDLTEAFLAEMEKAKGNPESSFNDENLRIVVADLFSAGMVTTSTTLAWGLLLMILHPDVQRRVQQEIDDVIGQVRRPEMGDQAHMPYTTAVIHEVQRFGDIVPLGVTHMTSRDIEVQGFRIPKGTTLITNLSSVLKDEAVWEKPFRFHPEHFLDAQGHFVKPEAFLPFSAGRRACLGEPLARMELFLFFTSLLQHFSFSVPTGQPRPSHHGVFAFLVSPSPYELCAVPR

[3] = biological target: Cytochrome P450 2C9 (Homo sapiens, UniProt P11712)
Chain of Cytochrome P450 2C9 (P11712 whole entry): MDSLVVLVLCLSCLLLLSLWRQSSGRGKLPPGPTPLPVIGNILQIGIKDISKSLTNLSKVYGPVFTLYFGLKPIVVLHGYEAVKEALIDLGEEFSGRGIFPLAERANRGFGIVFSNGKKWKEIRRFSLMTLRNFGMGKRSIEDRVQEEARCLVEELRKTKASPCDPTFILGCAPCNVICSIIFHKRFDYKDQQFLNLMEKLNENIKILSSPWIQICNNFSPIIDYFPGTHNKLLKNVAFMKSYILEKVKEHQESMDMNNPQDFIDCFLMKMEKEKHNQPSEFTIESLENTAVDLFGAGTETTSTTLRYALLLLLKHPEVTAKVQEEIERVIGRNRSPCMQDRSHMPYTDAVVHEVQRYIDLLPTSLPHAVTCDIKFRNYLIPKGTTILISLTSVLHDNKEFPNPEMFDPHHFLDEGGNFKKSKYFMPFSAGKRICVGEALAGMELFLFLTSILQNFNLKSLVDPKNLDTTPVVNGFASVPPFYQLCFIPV

[4] = biological target: Cytochrome P450 2C19 (Homo sapiens, UniProt P33261); assay: Cytochrome panel assay with activity outcomes. Panel member name: p450-cyp2c19 Compounds with AC50 equal or less than 10 uM are considered active; format: functional
Chain of Cytochrome P450 2C19 (P33261 whole entry): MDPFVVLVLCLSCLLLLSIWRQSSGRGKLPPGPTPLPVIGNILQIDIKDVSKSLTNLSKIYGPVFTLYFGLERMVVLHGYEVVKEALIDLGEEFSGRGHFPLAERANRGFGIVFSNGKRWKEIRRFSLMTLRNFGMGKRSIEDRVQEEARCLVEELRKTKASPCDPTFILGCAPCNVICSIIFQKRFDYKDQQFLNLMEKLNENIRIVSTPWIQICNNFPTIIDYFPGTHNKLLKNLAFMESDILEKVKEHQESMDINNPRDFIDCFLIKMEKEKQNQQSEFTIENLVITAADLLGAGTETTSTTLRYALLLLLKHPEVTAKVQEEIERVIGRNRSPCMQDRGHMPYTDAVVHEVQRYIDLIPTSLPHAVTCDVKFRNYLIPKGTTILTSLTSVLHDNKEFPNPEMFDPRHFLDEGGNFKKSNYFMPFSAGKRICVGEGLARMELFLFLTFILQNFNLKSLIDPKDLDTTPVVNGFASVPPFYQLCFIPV

[5] = biological target: Cytochrome P450 3A4 (Homo sapiens, UniProt P08684);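 also: CYP3A4 tested as one member of a cytochrome P450 panel screen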
Chain of Cytochrome P450 3A4 (P08684 whole entry): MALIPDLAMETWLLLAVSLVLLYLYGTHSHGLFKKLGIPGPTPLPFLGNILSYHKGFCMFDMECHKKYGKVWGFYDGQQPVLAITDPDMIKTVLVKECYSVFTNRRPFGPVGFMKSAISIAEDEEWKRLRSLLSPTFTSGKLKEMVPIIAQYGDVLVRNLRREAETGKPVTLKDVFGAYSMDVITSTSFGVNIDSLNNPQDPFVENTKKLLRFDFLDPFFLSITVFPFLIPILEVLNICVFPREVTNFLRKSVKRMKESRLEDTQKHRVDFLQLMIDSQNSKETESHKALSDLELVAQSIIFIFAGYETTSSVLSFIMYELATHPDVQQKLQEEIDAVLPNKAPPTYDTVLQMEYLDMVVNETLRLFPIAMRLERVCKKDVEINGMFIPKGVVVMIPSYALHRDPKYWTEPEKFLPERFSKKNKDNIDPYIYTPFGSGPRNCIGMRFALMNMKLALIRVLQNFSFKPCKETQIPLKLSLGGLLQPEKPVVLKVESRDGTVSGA

[6] = biological target: T2, Heat shock factor protein 1 (Mus musculus, UniProt P38532); assay: inhibition of MG132-induced HSE-luciferase signal, confirmation, cell-based, NIH3T3, luminescence, dose retest (AID 2382); format: functional;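 also: NIH3T3 fibroblasts with HSF1-driven luciferase reporter stressed by proteasome inhibitor MG132; luminescence from HSF1-driven luciferase expression after 8 hours of MG132 stress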
T2 sequence (P38532 whole entry): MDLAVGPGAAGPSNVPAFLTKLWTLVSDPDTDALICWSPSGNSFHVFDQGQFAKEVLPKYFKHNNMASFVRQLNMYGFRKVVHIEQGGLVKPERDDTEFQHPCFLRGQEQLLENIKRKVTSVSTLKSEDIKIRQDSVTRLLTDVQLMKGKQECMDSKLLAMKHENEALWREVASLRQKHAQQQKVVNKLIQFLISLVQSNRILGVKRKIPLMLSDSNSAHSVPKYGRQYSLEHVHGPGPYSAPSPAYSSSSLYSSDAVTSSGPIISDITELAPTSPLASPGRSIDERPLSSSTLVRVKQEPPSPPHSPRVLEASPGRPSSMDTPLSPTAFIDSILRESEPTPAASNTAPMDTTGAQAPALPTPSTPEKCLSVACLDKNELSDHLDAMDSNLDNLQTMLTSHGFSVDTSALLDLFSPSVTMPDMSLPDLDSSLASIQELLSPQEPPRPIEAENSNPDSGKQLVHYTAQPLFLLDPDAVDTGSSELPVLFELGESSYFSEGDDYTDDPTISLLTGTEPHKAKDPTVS

[7] = tested on: INS1; assay: beta cell apoptosis inhibitors, cytokine rescue, dose response, luminescence, retest (AID 449756); format: functional, cell-based; details: Rattus norvegicus;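 also: cell death triggered by IL-1 beta plus TNF-alpha plus IFN-gamma mixture; protective hits raise ATP signal compared with cytokine alone wells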
[8] = biological target: Large T antigen (Simian virus 40, UniProt P03070); format: functional, Betapolyomavirus macacae;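 also: Confirmatory-stage PubChem screen for compounds that inhibit SV40 T antigen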
Chain of Large T antigen (P03070 whole entry): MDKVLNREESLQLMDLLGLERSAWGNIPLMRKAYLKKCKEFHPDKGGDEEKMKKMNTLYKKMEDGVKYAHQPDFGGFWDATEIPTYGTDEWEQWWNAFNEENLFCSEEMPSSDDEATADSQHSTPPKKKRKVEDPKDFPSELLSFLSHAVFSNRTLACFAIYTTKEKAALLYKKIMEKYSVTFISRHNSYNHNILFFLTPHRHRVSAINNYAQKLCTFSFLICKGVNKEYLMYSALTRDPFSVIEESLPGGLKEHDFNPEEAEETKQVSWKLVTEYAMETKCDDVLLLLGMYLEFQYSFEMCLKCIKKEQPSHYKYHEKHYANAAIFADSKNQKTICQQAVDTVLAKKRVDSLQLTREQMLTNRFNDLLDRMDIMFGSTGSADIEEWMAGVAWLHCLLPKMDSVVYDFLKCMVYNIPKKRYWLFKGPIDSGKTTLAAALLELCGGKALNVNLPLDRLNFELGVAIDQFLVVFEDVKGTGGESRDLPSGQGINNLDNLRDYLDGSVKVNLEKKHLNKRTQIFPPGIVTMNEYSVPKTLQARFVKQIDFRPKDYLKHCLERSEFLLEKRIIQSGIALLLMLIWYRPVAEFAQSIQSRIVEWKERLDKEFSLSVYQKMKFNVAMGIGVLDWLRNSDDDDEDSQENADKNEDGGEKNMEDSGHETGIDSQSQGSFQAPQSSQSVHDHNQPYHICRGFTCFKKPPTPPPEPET

[9] = biological target: T3, Replicative DNA helicase DnaB (Mycobacterium tuberculosis, UniProt P9WMR3); assay: DnaB intein splicing inhibitors, dose response, biochemical, cell-free fluorescence (AID 449749); format: functional
T3 sequence (P9WMR3 whole entry): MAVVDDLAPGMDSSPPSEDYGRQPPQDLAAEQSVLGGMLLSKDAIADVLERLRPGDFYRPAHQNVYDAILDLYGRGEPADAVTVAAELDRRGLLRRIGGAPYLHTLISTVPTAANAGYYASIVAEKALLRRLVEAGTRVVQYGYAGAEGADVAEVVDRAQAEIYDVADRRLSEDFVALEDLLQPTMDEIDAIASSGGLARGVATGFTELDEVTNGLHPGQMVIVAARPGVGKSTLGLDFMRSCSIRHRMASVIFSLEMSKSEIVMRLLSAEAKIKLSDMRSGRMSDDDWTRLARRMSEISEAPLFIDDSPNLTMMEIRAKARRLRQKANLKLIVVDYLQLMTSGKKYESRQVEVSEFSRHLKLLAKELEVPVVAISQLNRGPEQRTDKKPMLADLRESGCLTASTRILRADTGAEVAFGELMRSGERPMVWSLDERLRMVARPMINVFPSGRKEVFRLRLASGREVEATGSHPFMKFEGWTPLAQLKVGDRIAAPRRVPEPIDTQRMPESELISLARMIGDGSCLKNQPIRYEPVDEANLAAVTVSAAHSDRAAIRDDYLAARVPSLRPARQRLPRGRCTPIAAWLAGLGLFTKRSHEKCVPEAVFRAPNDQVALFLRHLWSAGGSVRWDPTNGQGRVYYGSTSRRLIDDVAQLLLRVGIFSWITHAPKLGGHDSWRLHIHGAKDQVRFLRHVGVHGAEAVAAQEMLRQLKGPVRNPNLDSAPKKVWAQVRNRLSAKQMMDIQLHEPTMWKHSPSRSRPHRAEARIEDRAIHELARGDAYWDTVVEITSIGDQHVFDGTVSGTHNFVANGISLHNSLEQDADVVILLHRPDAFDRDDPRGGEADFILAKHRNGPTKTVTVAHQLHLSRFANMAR

[10] = biological target: T4, Protein RecA (Mycobacterium tuberculosis, UniProt P9WHJ3); assay: Fluorescence Cell-Free Homogeneous Dose Retest to Identify Inhibitors of RecA-Intein Splicing Activity. [Related pubchem assays (depositor defined):AID2097, AID2223, AID489010, AID492950]; format: functional
T4 sequence (P9WHJ3 whole entry): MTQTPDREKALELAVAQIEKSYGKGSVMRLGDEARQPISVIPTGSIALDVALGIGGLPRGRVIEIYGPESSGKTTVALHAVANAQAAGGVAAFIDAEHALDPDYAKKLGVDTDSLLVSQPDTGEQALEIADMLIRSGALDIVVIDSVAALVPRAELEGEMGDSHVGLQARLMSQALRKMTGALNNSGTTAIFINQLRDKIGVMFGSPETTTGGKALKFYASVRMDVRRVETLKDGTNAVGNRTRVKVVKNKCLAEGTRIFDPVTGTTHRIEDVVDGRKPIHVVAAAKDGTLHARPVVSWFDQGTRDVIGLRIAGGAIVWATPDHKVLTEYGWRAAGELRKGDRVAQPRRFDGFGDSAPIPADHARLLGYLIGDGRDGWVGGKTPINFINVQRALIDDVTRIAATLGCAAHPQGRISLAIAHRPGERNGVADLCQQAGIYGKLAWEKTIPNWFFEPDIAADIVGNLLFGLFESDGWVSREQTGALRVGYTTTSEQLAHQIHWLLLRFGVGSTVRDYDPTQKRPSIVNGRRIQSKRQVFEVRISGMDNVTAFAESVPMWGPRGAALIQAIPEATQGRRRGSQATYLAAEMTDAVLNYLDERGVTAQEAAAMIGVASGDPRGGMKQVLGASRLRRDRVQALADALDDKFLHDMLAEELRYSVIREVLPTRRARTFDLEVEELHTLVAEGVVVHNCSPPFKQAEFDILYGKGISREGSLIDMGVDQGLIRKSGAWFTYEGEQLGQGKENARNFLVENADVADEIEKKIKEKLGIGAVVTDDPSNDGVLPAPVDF

With `CCCCCC(=O)O[C@H](CC(=O)O)C[N+](C)(C)C` the AC50 [1] was 31.6 µM (inconclusive).
`Cc1cc(=O)oc(C)c1C(=O)NCCCN1CCN(c2ccc(F)cc2)CC1` was tested, and the AC50 [2] was 15.8 µM (inconclusive) and the AC50 [3] was 15.8 µM (inconclusive).
For `c1ccc(-c2n[nH]c(-c3ccccc3)c2-c2nc3ccccc3[nH]2)cc1`, the AC50 ([4]; read-out: AC50) was 22.4 µM (inconclusive).
For `O=C(c1ccccc1)N1CCSC1=S`, the AC50 ([4]; read-out: AC50) was 25.1 µM (inconclusive).
`Cc1nc2ccccn2c1C(=O)CSc1ccccc1Cl` was tested, and the AC50 [5] was 12.6 µM (inconclusive) and the AC50 [2] was 25.1 µM (inconclusive).
`NC(=O)C1CCN(C(=O)OCc2ccccc2)CC1` was tested, and the AC50 ([4]; read-out: AC50) was 11.2 µM (inconclusive).
With `CCOc1ccc(NC(=O)c2cccnc2C(=O)O)cc1` the EC50 [6] was > 195 µM (not active).
In the case of `O=C(CSc1nnc(CCc2ccccc2)n1-c1ccc(Cl)cc1)c1ccccc1`, the EC50 [6] was > 195 µM (not active).
In the case of `COc1ccc(OC)c(NC(S)=NCc2cccnc2)c1`, the EC50 [6] was > 195 µM (not active).
For `COc1ccc(C2=NCCn3nc4cc([N+](=O)[O-])ccc4c32)cc1`, the EC50 [6] was > 195 µM (not active).
`COCCCN(Cc1ccco1)C(=O)CSc1nc2ccc[nH]c-2n1` was tested, and the EC50 [6] was > 195 µM (not active).
`COC(=O)CN1C(=O)Nc2ccc(C)cc2C1c1ccccc1` (centres undefined) was tested, and the EC50 [6] was > 195 µM (not active).
In the case of `COc1ccc(S(=O)(=O)Nc2ccccc2C(=O)N2CCOCC2)cc1Cl`, the EC50 [6] was 46 µM (active).
With `CCC(=O)N(C)/C=C1\Sc2ccccc2C1=O` the AC50 [5] was 14.1 µM (inconclusive) and the AC50 [3] was 12.6 µM (inconclusive).
`Cc1cnc(CNc2nc(-c3ccccc3C)nc3ccccc23)cn1` was tested, and the AC50 [5] was 10 µM (inconclusive) and the AC50 [2] was 39.8 µM (inconclusive).
`O=C(COc1cccnc1[N+](=O)[O-])Nc1cc(S(=O)(=O)N2CCCCC2)ccc1Cl` was tested, and the EC50 [6] was > 195 µM (not active).
In the case of `O=C1O[C@@H]([C@H](O)[C@H](O)[C@H](O)CO)[C@@H](O)[C@@H]1O`, the AC50 [4] was “inconclusive”.
In the case of `COc1ccccc1CNC(=O)Cn1nnc(-c2ccncc2)n1`, the AC50 [5] was 3.16 µM (inconclusive) and the AC50 [2] was 2.24 µM (inconclusive).
In the case of `Cc1ccc(NC(=O)C2CCCN2S(=O)(=O)c2ccc3c(c2)n(C)c(=O)c(=O)n3C)cc1C` (centres undefined), the EC50 [6] was > 195 µM (not active).
In the case of `Fc1ccc(Oc2nc(-c3ccccn3)nc3ccccc23)cc1`, the AC50 [7] was 4.84 µM (active).
With `CC[C@@H]1C/C=C\Cc2ccccc2[C@H](C(=O)C[C@@H](O)CC(C)=O)OC1=O` the AC50 [7] was > 260 µM (inactive).
For `CN1CCN(c2ncc3ncc(=O)n(CCc4ccccc4)c3n2)CC1`, the AC50 [5] was 15.8 µM (inconclusive) and the AC50 [2] was 20 µM (inconclusive).
With `CCCOc1ccc(N2CC(C(=O)NC(C)C)CC2=O)cc1` (centres undefined) the EC50 [6] was > 195 µM (not active).
`Cc1cccc(C(=O)NNC(=O)C2CCCO2)c1` (centres undefined) was tested, and the AC50 ([4]; read-out: AC50) was 5.01 µM (inconclusive).
With `COc1ccccc1CN1CC2(CCN(C(=O)c3cnccn3)CC2)C1` the AC50 [5] was 20 µM (inconclusive).
In the case of `COc1ccc(NC(=O)Cn2cccc2)c(OC)c1`, the AC50 [3] was 7.08 µM (inconclusive).
With `O=C(Oc1ccccc1[N+](=O)[O-])c1cccnc1` the AC50 [3] was 15.8 µM (inconclusive).
With `Cc1ccnc(NC(=O)c2cccc(NC(=O)COc3ccccc3)c2)c1` the AC50 [2] was 17.8 µM (inconclusive) and the AC50 [3] was 4.47 µM (inconclusive).
`Cc1ccc(NC(=O)CSCc2cc(=O)n3cc(C)sc3n2)c(C)c1` was tested, and the EC50 [6] was > 195 µM (not active).
In the case of `COc1cccc(Nc2ncc3nc(C)c(=O)n(-c4ccccc4)c3n2)c1`, the AC50 [3] was 31.6 µM (inconclusive) and the AC50 ([4]; read-out: AC50) was 25.1 µM (inconclusive).
In the case of `COC(=O)[C@@]1(Cc2ccc(OC)cc2)[C@H]2c3cc(C(=O)N(C)C)n(CCc4ccccn4)c3C[C@H]2CN1C(=O)c1ccccc1`, the AC50 ([4]; read-out: AC50) was 39.8 µM (inconclusive).
With `Cn1c(=O)c(-c2cccs2)nc2cnc(N3CCNCC3)nc21` the AC50 [5] was 25.1 µM (inconclusive) and the AC50 [3] was 39.8 µM (inconclusive).
`c1ccc2c(CNC3CCCCC3)c[nH]c2c1` was tested, and the AC50 [7] was 8.45 µM (active).
`O=Cc1sc(=O)n(Cc2cccc(C(=O)O)c2)c1Cl` was tested, and the IC50 [8] was 18.6 µM (active), the AC50 [9] was 16.5 µM (active) and the EC50 [10] was 9.42 µM (active).
For `C/C(=C/C(=O)NCc1ccccc1)C(=O)O`, the AC50 [3] was 0.0398 µM (inconclusive) and the AC50 [4] was “inconclusive”.
In the case of `COC(=O)[C@H](Cc1ccccc1)N(Cc1ccccc1)S(=O)(=O)N(Cc1ccccc1)[C@@H](Cc1ccccc1)C(=O)OC`, the AC50 [7] was 4.51 µM (active).
With `CCNC(=O)C1CC(=O)OC12CCCCC2` (centres undefined) the AC50 [3] was 25.1 µM (inconclusive).
`CC(C)C(NC(=O)C1CCCCC1)C(=O)NCc1ccccn1` (centres undefined) was tested, and the AC50 [5] was 15.8 µM (inconclusive).
With `Cc1ccc(C(=O)COC(=O)c2ccccc2N2C(=O)C3C4CCC(C4)C3C2=O)cc1C` (centres undefined) the AC50 [3] was 2 µM (inconclusive).
`CCOC(=O)c1cc2c(=O)n3cccc(C)c3nc2n(CCOC)/c1=N\C(C)=O` was tested, and the EC50 [6] was > 195 µM (not active).
`COc1ccc(/C=N\NC(=O)C2C(=O)NCC2c2ccccc2)cc1O` (centres undefined) was tested, and the AC50 [5] was 39.8 µM (inconclusive), the AC50 [2] was 7.94 µM (inconclusive) and the AC50 [3] was 35.5 µM (inconclusive).
With `CC1(C)CC(=O)C(/C=N/CCN2CCN(C(=S)Nc3ccc(F)cc3)CC2)=C(O)C1` the AC50 [5] was 25.1 µM (inconclusive) and the AC50 [3] was 25.1 µM (inconclusive).
`Cc1ccc(C(=O)NCCNC(=O)CN2CCOCC2)cc1` was tested, and the AC50 [5] was 28.2 µM (inconclusive) and the AC50 ([4]; read-out: AC50) was 0.708 µM (inconclusive).
